# Ends that are not written are not given here.
# Columns and labels:
# HIV-1IIIB = settings: positive controls
# HCMV strain AD169 = experiment: HCMV plaque formation assay in MRC-5 cells; settings: 10 micrograms per ml, 7-10 days
# [1] = tested on: Th1/Th2 cytokines in spleen cells; experiment: Th1/Th2 cytokine profiling assay (Ovalbumin-restimulated spleen cells, CBA kit); type: cell-based, Balb/c mice; settings: 10 micrograms per ml; Ovalbumin restimulation; 72 hours
# HUVEC = experiment: Endothelial tube formation assay; type: cell-based, human; settings: 10 micrograms per ml, 20 hours
# Text: Positive control was vehicle only.
# [2] = tested on: LPS-induced TNF-alpha production in human macrophages; experiment: TNF alpha production assay (LPS-stimulated macrophages, ELISA); type: cell-based; settings: 10 micrograms per ml; LPS 200 ng/ml; overnight
# Text: Not stimulated macrophages served as negative background control.
# [3] = tested on: hepatitis B virus (HBV) ayw strain; experiment: HBV assay in HepG2-2.2.15 cells, secreted HBV DNA by TaqMan PCR; type: cell-based; settings: 10 micrograms per ml, six days, HBV DNA in supernatant
Compound,antiviral activity of positive control compounds (HIV-1) (HIV-1IIIB),inhibition of HCMV plaque formation as compared to the virus control (HCMV strain AD169),IFNγ spleen cells; TH1 response (% of control) [1],IL-2 spleen cells (% of control) [1],IL-4 spleen cells; TH2 response (% of control) [1],IL-5 spleen cells; TH2 response (% of control) [1],TNF-a spleen cells; TH1 response (% of control) [1],inhibition of the tube formation of endothelial cells (HUVEC),induction of the LPS-induced TNF-alpha production in human macrophages [2],inhibition of HBV replication as compared to the virus control infection [3]
Cc1cn([C@H]2C[C@H](N=[N+]=[N-])[C@@H](CO)O2)c(=O)[nH]c1=O [AZT],expected levels of antiviral activity,–,–,–,–,–,–,–,–,–
CC(C)(C)NC(=O)[C@@H]1CN(Cc2cccnc2)CCN1C[C@@H](O)C[C@@H](Cc1ccccc1)C(=O)N[C@H]1c2ccccc2C[C@H]1O [indinavir],expected levels of antiviral activity,–,–,–,–,–,–,–,–,–
Tyr-Leu-Leu-Pro-Ala-Gln-Val-Asn-Ile-Asp-OH (YLLPAQVNID-OH) [peptide 1],–,did not inhibit,135.2 % of control,215.4 % of control,138.4 % of control,111.1 % of control,165.0 % of control,25%,18%,65.0%

# From patent US20100204108A1, “USE OF NEUROTROPHIC FACTOR FOR RETINAL CHOLINERGIC NEURONS (NFRCN) AND CHORIONIC GONADOTROPIN-BETA (109-145) AS THERAPEUTIC AGENTS” (priority 2007, published 2010)
